# Test results published in patent publication US9238643B2, “Amide compounds” (Guangzhou Institutes of Biomedicine and Health, Chinese …, priority 2010, dated 2016).
# System: IL-1β secretion of BV2
# Test: Inhibition of LPS-induced IL-1β secretion of BV2 microglial cells (ELISA)
# Assay type: cell-based
# Settings: BV-2, 24 hours; for IC50: BV2 cells, 300 ng/ml LPS induction, IL-1β by ELISA, read-out: IC50 of inhibition of the compounds of the present application to IL-1β secretion of BV2; for inhibition at 0.02 µM: Mus musculus, IL-1β secretion of BV2, compound concentration 20 nM, LPS induction, read-out: Inhibition rate (%) at 20 nM
# Description: 1. […] microglial cell BV2 and Glioma cell line C6 are incubated in DMEM culture medium with 10% FBS, and the 6th to 15th generation culture cells are applicable for compound activity selection. Culture cells are innoculated on the 24-well cell culturing plate with 50,000 cells/well, after one day culturing, switch to low serum medium (with 2% FBS) for another 16 hours culturing. Add 300 ng/ml (for induction of BV2 cells) or 1 mg/mL (for induction of C6 cells) LPS (Salmonella typhimutium) to the culture medium to induce the IL-1β secretion of culture cells. At the same time, add sample to be determined (with DMSO≦0.1%) at concentrations of 200 pM, 20 nM, 2 μM and 200 μM; add 0.1% DMSO to blank as solvent control.
# 2. 24 hours after LPS induction/drug treatment, collect the culture solution and quantitatively measure the level of IL-1β. Centrifuge the culture solution at 8,000 g for 10 min at 4° C., and remove the floating particle impurities. Dilute the supernant one time, and take 150 μL sample for ELISA (Biosource) measurement.
# 3. Treatment of culture cells and ELISA measurement are conducted with double blind method.
# 4 Inhibition efficiency of candidate compound is calculated according to formula, and IC50 of every kind of candidate compound is calculated. Inhibition efficiency(%)=([IL-1β]LPS induction−[IL-1β]medical treatment)/[IL-1β]LPS induction×100%. Formula
# 5. Efficiency evaluation of candidate compound: positive inhibition rate of compound to IL-1β secretion of BV2 is the standard judgment of compounds efficiency; negative inhibition rate of compound to IL-1β secretion of C6 is the standard judgment of compounds safety.
IC50,SMILES,inhibition at 0.02 µM
1.42 nM,"O=C(c1nc(-c2ccccc2)nc2ccccc12)N1CCN(c2ncc(F)cn2)CC1 [Compound 12, (4-(5-fluoropyrimid-2-yl)piperazinyl)(2-phenylquinazolinyl) ketone]",–
0.16 nM,"O=C(c1nc(-c2ccccc2)nc2ccccc12)N1CCN(c2ncccn2)CC1 [Compound 12a, (4-(pyrimid-2-yl)piperazinyl) (2-phenylquinazolinyl) ketone]",46.1%
24.3 nM,"O=C(c1nc(-c2ccccc2)nc2ccccc12)N1CCN(c2ccccn2)CC1 [Compound 13, (4-(2-pyridinyl)piperazinyl)(2-phenylquinazolinyl)ketone]",–

# More lines, now with the values behind:
SMILES,IC50,inhibition at 0.02 µM
"Cc1cc(-c2ccccc2)nnc1C(=O)N1CCN(c2ccc(F)cc2)CC1 [Compound 4, (4-(4-fluorophenyl)piperazinyl) (4-methyl-6-phenylpyridazinyl) ketone]",0.56 nM,54.6%
"Cc1cc(-c2ccccc2)nnc1C(=O)N1CCN(c2ncccn2)CC1 [Compound 5, (2-pyrimidylpiperazinyl)(4-methyl-6-phenylpyridazinyl)ketone]",0.6 nM,54.5%
"O=C(c1nc(-c2ccccc2)nc2ccccc12)N1CCN(c2ccc(F)cc2)CC1 [Compound 11, (4-(4-fluorophenyl)piperazinyl) (2-phenylquinazolinyl) ketone]",3.38 nM,–
"O=C(c1n[nH]c2c(F)ccc(F)c12)N1CCN(c2ccc(F)cc2)CC1 [Compound 20, (4-(4-fluorophenyl)piperazinyl) (4,7-difluoroindazol-3-yl) ketone]",42.5 nM,48.06 ± 0.0618%
Cc1cc(-c2ccccc2)nnc1C(=O)N1CCN(c2ncc(F)cn2)CC1 [Compound 24],5.49 nM,–
"Cc1cc(-c2ccccc2)nnc1C(=O)N1CCN(C)CC1 [Compound 26, (N-methylpiperazinyl) (4-methyl-6-phenylpyridazinyl) ketone]",0.11 nM,–
